According to BindingDB's records for doi:10.1021/acs.jmedchem.8b00605 (Leiden University, 2018):
pKi: −log10 of the molar value.

Molecular target: T1, C-C chemokine receptor type 1 (Homo sapiens, UniProt P32246)
T1 sequence (P32246 whole entry): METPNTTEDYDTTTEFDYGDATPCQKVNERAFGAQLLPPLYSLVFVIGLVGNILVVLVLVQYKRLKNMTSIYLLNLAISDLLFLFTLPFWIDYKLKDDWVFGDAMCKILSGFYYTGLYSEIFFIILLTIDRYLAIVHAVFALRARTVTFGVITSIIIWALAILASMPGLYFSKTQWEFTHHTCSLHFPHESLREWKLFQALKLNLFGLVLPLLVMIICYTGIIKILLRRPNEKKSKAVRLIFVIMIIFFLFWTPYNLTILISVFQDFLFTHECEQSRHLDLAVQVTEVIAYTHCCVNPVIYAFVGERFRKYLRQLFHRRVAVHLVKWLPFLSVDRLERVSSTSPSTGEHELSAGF
Test: Displacement of [3H]-CCR2-RA-[R] from human TEV protease site linked CCR1 expressed in human U20S cell membranes co-expressing Gal4-VP16 transcription factor after 120 mins by scintillation spectrometry

pKi: 8.00
SMILES: CC(=O)C1=C(O)C(=O)N(c2ccc(Br)cc2F)C1C1CCCCC1 (stereo unspecified)
